Measurements reported in patent US11440899B2, “Pyrimidine TBK/IKKe inhibitor compounds and uses thereof” (Merck Patent GmbH, priority 2017, dated 2022).

Experiments:
TBK1 = TBK1 (Homo sapiens (Human), UniProt Q9UHD2); assay: TBK Biochemical Assay
Experimental: Example 106: TBK Biochemical Assay Test compounds were transferred into Labcyte polypropylene 384 well plates ([…]-25) and diluted to 3 mM using DMSO. 3 mM test compounds were dispensed using Labcyte ECHO dose response module into Greiner 784075 plates (columns 3-12 and 13-22, 10 point 1:4) so that high concentration was 30 uM final. 100 uM of a reference compound (1 uM final high concentration). Backfilling was performed if necessary so that all wells contain 1% DMSO final: add 75 nl DMSO/well into columns 1, 2 and 24 using Labcyte Echo. add 75 nl 1.0 mM staurosporine/well into column 23 using Labcyte Echo (10 uM final) add 4.5 ul enzyme/well using multidrop dispenser add 3 ul substrate/well using multidrop dispenser incubate at 25° C. in Heidolph incubator for 90 min. add 7.5 ul 2× stop buffer using multidrop dispenser read on labchip ez reader II using TBK1.job Raw data files were opened in the Caliper LabChip Reviewer program (Version 3.0.265.0 SP2) and peak assignments were adjusted to reflect “substrate first” with the software's post-run analysis options. A spline-fit baseline was applied using the software's analysis algorithm.

IKKe = IKKe (Homo sapiens (Human), UniProt Q14164); assay: IKKe Biochemical Assay
Experimental: IKKe Biochemical Assay Test compounds were transferred into Labcyte polypropylene 384 well plates ([…]-25) and diluted to 3 mM using DMSO. 3 mM test compounds were dispensed using Labcyte ECHO dose response module into Greiner 784075 plates (columns 3-12 and 13-22, 10 point 1:4) so that high concentration was 30 uM final. 100 uM of a reference compound (1 uM final high concentration). Backfilling was performed if necessary so that all wells contain 1% DMSO final: add 75 nl DMSO/well into columns 1, 2 and 24 using Labcyte Echo. add 75 nl 1.0 mM staurosporine/well into column 23 using Labcyte Echo (10 uM final) add 4.5 ul enzyme/well using multidrop dispenser add 3 ul substrate/well using multidrop dispenser incubate at 25° C. for 90 min. add 7.5 ul 2× stop buffer read on labchip ez reader II using IKKε. job Raw data files were opened in the Caliper LabChip Reviewer program (Version 3.0.265.0 SP2) and peak assignments were adjusted to reflect “substrate first” with the software's post-run analysis options. A spline-fit baseline was applied using the software's analysis algorithm.

Sequence of TBK1 (Q9UHD2 whole entry, species assumed): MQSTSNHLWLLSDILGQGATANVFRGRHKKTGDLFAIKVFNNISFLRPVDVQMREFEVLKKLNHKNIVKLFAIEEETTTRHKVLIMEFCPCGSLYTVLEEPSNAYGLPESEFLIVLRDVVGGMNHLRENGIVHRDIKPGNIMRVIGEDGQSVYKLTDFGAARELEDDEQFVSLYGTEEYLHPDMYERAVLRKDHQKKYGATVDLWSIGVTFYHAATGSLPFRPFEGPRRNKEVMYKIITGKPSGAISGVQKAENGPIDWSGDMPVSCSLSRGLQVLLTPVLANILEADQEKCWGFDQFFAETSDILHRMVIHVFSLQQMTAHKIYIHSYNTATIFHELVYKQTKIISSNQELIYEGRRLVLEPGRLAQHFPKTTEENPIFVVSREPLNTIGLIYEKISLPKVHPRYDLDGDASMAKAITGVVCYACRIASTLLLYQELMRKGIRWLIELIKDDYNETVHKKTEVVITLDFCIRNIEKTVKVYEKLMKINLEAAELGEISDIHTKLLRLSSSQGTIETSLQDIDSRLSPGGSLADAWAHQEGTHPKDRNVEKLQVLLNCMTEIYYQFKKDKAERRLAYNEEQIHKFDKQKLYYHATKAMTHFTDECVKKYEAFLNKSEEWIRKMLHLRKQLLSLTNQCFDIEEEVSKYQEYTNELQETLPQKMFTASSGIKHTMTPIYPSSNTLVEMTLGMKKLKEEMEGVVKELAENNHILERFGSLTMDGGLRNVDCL
Sequence of IKKe (Q14164 whole entry, species assumed): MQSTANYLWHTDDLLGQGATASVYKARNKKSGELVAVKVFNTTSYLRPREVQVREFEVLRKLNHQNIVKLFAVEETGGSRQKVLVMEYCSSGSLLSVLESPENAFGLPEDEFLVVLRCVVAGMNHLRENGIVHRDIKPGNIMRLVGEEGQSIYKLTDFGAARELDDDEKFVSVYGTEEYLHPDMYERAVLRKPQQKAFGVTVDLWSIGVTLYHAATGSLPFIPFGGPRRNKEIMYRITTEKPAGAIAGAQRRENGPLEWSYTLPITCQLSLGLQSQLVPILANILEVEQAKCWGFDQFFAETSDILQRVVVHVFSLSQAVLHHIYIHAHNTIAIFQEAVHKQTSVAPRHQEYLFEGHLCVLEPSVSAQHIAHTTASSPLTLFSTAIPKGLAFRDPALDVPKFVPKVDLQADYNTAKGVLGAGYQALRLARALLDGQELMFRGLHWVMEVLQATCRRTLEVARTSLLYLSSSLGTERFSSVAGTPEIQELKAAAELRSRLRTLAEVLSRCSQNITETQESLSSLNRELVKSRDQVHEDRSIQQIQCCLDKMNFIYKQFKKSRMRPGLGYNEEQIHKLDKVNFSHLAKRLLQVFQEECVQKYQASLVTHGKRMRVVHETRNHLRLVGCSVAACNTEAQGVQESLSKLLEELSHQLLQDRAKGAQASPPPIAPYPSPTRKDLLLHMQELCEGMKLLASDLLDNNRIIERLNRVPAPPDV

SMILES | IC50 (TBK1) | IC50 (IKKe)
COc1nc(Nc2cc(-c3cc(C#N)c(OC4CCOCC4)cn3)ncn2)ccc1C(=O)N(C)C [Example 26, 6-([6-[4-cyano-5-(oxan-4-yloxy)pyridin-2-yl]pyrimidin-4-yl]amino)-2-methoxy-N,N-dimethylpyridine-3-carboxamide] | < 100 nM | < 100 nM
COc1nc(Nc2cc(-c3ccc(OC4CCOCC4)c(C#N)c3)ncn2)ccc1C1CCN(CC(F)F)CC1 [Example 28, 5-[6-([5-[1-(2,2-difluoroethyl)piperidin-4-yl]-6-methoxypyridin-2-yl]amino)pyrimidin-4-yl]-2-(oxan-4-yloxy)benzonitrile] | < 100 nM | < 100 nM
COc1nc(Nc2cc(-c3ccc(OC4CN(C)C4)c(C#N)c3)ncn2)ccc1C(=O)N(C)C [Example 37, 6-[(6-[3-cyano-4-[(1-methylazetidin-3-yl)oxy]phenyl]pyrimidin-4-yl)amino]-2-methoxy-N,N-dimethylpyridine-3-carboxamide] | 100 to 1000 nM | 100 to 1000 nM
COc1nc(Nc2cc(-c3ccc(OC4CCN(C)C4)c(C#N)c3)ncn2)ccc1C(=O)N(C)C (centres unmarked) [Example 39, 6-[(6-[3-cyano-4-[(1-methylpyrrolidin-3-yl)oxy]phenyl]pyrimidin-4-yl)amino]-2-methoxy-N,N-dimethylpyridine-3-carboxamide] | 100 to 1000 nM | 100 to 1000 nM
COc1nc(Nc2cc(-c3ccc(OC4CCN(C)CC4)c(C#N)c3)ncn2)ccc1C(=O)N(C)C [Example 41, 6-[(6-[3-cyano-4-[(1-methylpiperidin-4-yl)oxy]phenyl]pyrimidin-4-yl)amino]-2-methoxy-N,N-dimethylpyridine-3-carboxamide] | 1000 to 5000 nM | 1000 to 5000 nM
COc1nc(Nc2cc(-c3ccc(OC4CCN(C(=O)CO)CC4)c(C#N)c3)ncn2)ccc1C(=O)N(C)C [Example 42, 6-[[6-(3-cyano-4-[[1-(2-hydroxyacetyl)piperidin-4-yl]oxy]phenyl)pyrimidin-4-yl]amino]-2-methoxy-N,N-dimethylpyridine-3-carboxamide] | < 100 nM | < 100 nM
COc1nc(Nc2cc(-c3ccc(OC4CCN(C(=O)c5cnco5)CC4)c(C#N)c3)ncn2)ccc1C(=O)N(C)C [Example 43, 6-([6-[3-cyano-4-([1-[(1,3-oxazol-5-yl)carbonyl]piperidin-4-yl]oxy)phenyl]pyrimidin-4-yl]amino)-2-methoxy-N,N-dimethylpyridine-3-carboxamide] | < 100 nM | < 100 nM
COc1nc(Nc2cc(-c3ccc(OC4CCN(C(=O)c5cocn5)CC4)c(C#N)c3)ncn2)ccc1C(=O)N(C)C [Example 44, 6-([6-[3-cyano-4-([1-[(1,3-oxazol-4-yl)carbonyl]piperidin-4-yl]oxy)phenyl]pyrimidin-4-yl]amino)-2-methoxy-N,N-dimethylpyridine-3-carboxamide] | < 100 nM | < 100 nM
COc1nc(Nc2cc(-c3ccc(OC4CCN(C(=O)c5n[nH]c(C)n5)CC4)c(C#N)c3)ncn2)ccc1C(=O)N(C)C [Example 45, 6-([6-[3-cyano-4-([1-[(5-methyl-1H-1,2,4-triazol-3-yl)carbonyl]piperidin-4-yl]oxy)phenyl]pyrimidin-4-yl]amino)-2-methoxy-N,N-dimethylpyridine-3-carboxamide] | < 100 nM | < 100 nM
COc1nc(Nc2cc(-c3ccc(O[C@H]4CCNC[C@H]4F)c(C#N)c3)ncn2)ccc1C(=O)N(C)C [Example 46, 6-[[6-(3-cyano-4-[[(3R,4S)-3-fluoropiperidin-4-yl]oxy]phenyl)pyrimidin-4-yl]amino]-2-methoxy-N,N-dimethylpyridine-3-carboxamide] | 100 to 1000 nM | 100 to 1000 nM
COc1nc(Nc2cc(-c3ccc(O[C@H]4CCN(C(=O)CO)C[C@H]4F)c(C#N)c3)ncn2)ccc1C(=O)N(C)C [Example 47, 6-[[6-(3-cyano-4-[[(3R,4S)-3-fluoro-1-(2-hydroxyacetyl)piperidin-4-yl]oxy]phenyl)pyrimidin-4-yl]amino]-2-methoxy-N,N-dimethylpyridine-3-carboxamide] | < 100 nM | < 100 nM
COc1nc(Nc2cc(-c3ccc(OC4CCN(C)CC4(F)F)c(C#N)c3)ncn2)ccc1C(=O)N(C)C (centres unmarked) [Example 48, 6-[(6-[3-cyano-4-[(3,3-difluoro-1-methylpiperidin-4-yl)oxy]phenyl]pyrimidin-4-yl)amino]-2-methoxy-N,N-dimethylpyridine-3-carboxamide] | < 100 nM | < 100 nM
COc1nc(Nc2cc(-c3ccc(OC4CCN(C(=O)CO)CC4(F)F)c(C#N)c3)ncn2)ccc1C(=O)N(C)C (centres unmarked) [Example 49, 6-[[6-(3-cyano-4-[[3,3-difluoro-1-(2-hydroxyacetyl)piperidin-4-yl]oxy]phenyl)pyrimidin-4-yl]amino]-2-methoxy-N,N-dimethylpyridine-3-carboxamide] | < 100 nM | < 100 nM

Continued, values first:

IC50 (TBK1) | IC50 (IKKe) | SMILES
1000 to 5000 nM | 1000 to 5000 nM | COc1nc(Nc2cc(-c3ccc(OC4CCOCC4)c(C#N)n3)ncn2)ccc1C1CCN(C)CC1 [Example 25, 6-(6-[[6-methoxy-5-(1-methylpiperidin-4-yl)pyridin-2-yl]amino]pyrimidin-4-yl)-3-(oxan-4-yloxy)pyridine-2-carbonitrile]
100 to 1000 nM | 100 to 1000 nM | COc1nc(Nc2cc(-c3ccc(OC4CCOCC4)c(C#N)c3)ncn2)ccc1C1CCN(CC(F)(F)F)CC1 [Example 27, 5-[6-([6-methoxy-5-[1-(2,2,2-trifluoroethyl)piperidin-4-yl]pyridin-2-yl]amino)pyrimidin-4-yl]-2-(oxan-4-yloxy)benzonitrile]
< 100 nM | < 100 nM | CN1CCN(c2ccc(Nc3cc(-c4ccc(OC5CCOCC5)c(C#N)c4)ncn3)nc2)CC1 [Example 29, 5-(6-[[5-(4-methylpiperazin-1-yl)pyridin-2-yl]amino]pyrimidin-4-yl)-2-(oxan-4-yloxy)benzonitrile]
< 100 nM | < 100 nM | CN(C)C(=O)c1ccc(Nc2cc(-c3ccc(OC4CCOCC4)c(C#N)c3)ncn2)nc1 [Example 30, 6-([6-[3-cyano-4-(oxan-4-yloxy)phenyl]pyrimidin-4-yl]amino)-N,N-dimethylpyridine-3-carboxamide]
< 100 nM | < 100 nM | COc1cc(Nc2cc(-c3ccc(OC4CCOCC4)c(C#N)c3)ncn2)ncc1C(=O)N(C)C [Example 31, 6-([6-[3-cyano-4-(oxan-4-yloxy)phenyl]pyrimidin-4-yl]amino)-4-methoxy-N,N-dimethylpyridine-3-carboxamide]
1000 to 5000 nM | 1000 to 5000 nM | COc1cc(Nc2cc(-c3ccc(OC4CCOCC4)c(C#N)c3)ncn2)cnc1C(=O)N(C)C [Example 32, 5-([6-[3-cyano-4-(oxan-4-yloxy)phenyl]pyrimidin-4-yl]amino)-3-methoxy-N,N-dimethylpyridine-2-carboxamide]
< 100 nM | < 100 nM | COc1cc(Nc2cc(-c3ccc(OC4CCOCC4)c(C#N)c3)ncn2)ncc1N1CCN(C)CC1 [Example 33, 5-(6-[[4-methoxy-5-(4-methylpiperazin-1-yl)pyridin-2-yl]amino]pyrimidin-4-yl)-2-(oxan-4-yloxy)benzonitrile]
100 to 1000 nM | 100 to 1000 nM | COc1cc(Nc2cc(-c3ccc(OC4CCOCC4)c(C#N)c3)ncn2)cnc1N1CCN(C)CC1 [Example 34, 5-(6-[[5-methoxy-6-(4-methylpiperazin-1-yl)pyridin-3-yl]amino]pyrimidin-4-yl)-2-(oxan-4-yloxy)benzonitrile]
100 to 1000 nM | 100 to 1000 nM | COc1cc(Nc2cc(-c3ccc(OC4CCOCC4)c(C#N)c3)ncn2)cnc1C1CCN(C)CC1 [Example 35, 5-(6-[[5-methoxy-6-(1-methylpiperidin-4-yl)pyridin-3-yl]amino]pyrimidin-4-yl)-2-(oxan-4-yloxy)benzonitrile]
< 100 nM | < 100 nM | COc1cc(Nc2cc(-c3ccc(OC4CCOCC4)c(C#N)c3)ncn2)ncc1C1CCN(C)CC1 [Example 36, 5-(6-[[4-methoxy-5-(1-methylpiperidin-4-yl)pyridin-2-yl]amino]pyrimidin-4-yl)-2-(oxan-4-yloxy)benzonitrile]
< 100 nM | < 100 nM | COc1nc(Nc2cc(-c3ccc(OC4CN(C)C4)c(C#N)c3)ncn2)ccc1N1CCN(C)CC1 [Example 38, 5-(6-[[6-methoxy-5-(4-methylpiperazin-1-yl)pyridin-2-yl]amino]pyrimidin-4-yl)-2-[(1-methylazetidin-3-yl)oxy]benzonitrile]
100 to 1000 nM | 100 to 1000 nM | CN1CCN(c2ccc(Nc3cc(-c4ccc(OC5CCN(C)C5)c(C#N)c4)ncn3)nc2)CC1 (centres unmarked) [Example 40, 5-(6-[[5-(4-methylpiperazin-1-yl)pyridin-2-yl]amino]pyrimidin-4-yl)-2-[(1-methylpyrrolidin-3-yl)oxy]benzonitrile]
